From US4055658A, “Cyanomethylphenethanolamines” (Mead Johnson & Company, priority 1976, dated 1977)
Where two headings read alike, the source gives them in different places.

Experiments:
guinea pig trachea = test: Effect on spontaneous tone of guinea pig tracheal chain preparations; settings: Cavia porcellus; in vitro, bath concentration; read-out: effective bath concentration (EC) providing a 50% decrease in the spontaneous tone of the guinea pig trachea
From the text: (§1) Two in vitro test systems particularly useful in determining selective beta stimulant activity are: (1) effect on spontaneous tone of guinea pig tracheal chain preparations as a measure of relaxant effect on airway smooth muscle, and (2) effect on force and rate of spontaneously beating right atria of the guinea pig as a measure of beta-stimulant effect on cardiac muscle. If a beta-adrenergic agent exerts an effect on spontaneous tone of guinea pig trachea at a concentration lower than is required to affect heart force and rate, there is a positive separation ratio and the agent is considered to have bronchodilator activity with minimal cardiac stimulation. Thus, a comparison of the test agent with standard beta-stimulants such as isoproterenol or other beta-adrenergic agents can be made and relative bronchial selectivity determined.

[1] = tested on: methacholine-induced bronchoconstriction; test: Methacholine-induced bronchoconstriction in anesthetized rat; assay type: in vivo; settings: intraduodenal
Procedure: (§2) In the rat, transient bronchoconstriction is induced with a short-lasting intravenous (i.v.) infusion of methacholine to obtain a control value and at various times thereafter following intraduodenal (i.d.) administration of the test drug. Doses of test drug blocking methacholine induced bronchoconstriction are determined. In the dog, sustained bronchoconstriction is induced by continuous i.v. infusion of serotonin and doses of test drug necessary to reverse the bronchoconstriction are determined. In both animal models, measurements of cardiovascular effects from test drug is made simultaneously with the determination of the dose reversing bronchoconstriction. These in vivo comparisons are considered particularly significant since the bronchoconstriction induced resembles asthma and intraduodenal drug dosing of the anesthetized animal (i.e., rat) is similar to oral administration to a conscious animal. In the rat, 2-hydroxy-5-[1-hydroxy-2-[(1,1-dimethyl-2-phenylethyl)animo]ethyl]benzeneacetonitrile hydrochloride at a dose of 0.5 mg./kg. and 2.0 mg./kg. of body weight antagonizes methacholine-induced bronchoconstriction by 33.5 ± 5.2% and 72.3 ± 4.0%, respectively.

heart rate [2] = test: Cardiovascular effect (heart rate) measured simultaneously in the rat model; assay type: in vivo; settings: 0.5 and 2.0 mg./kg.
Procedure: as §2

[3] = tested on: serotonin-increase pulmonary airway resistance; test: Serotonin-induced sustained bronchoconstriction in anesthetized dog; assay type: in vivo
Procedure: as §2

guinea pig right atria = test: Effect on force and rate of spontaneously beating right atria of the guinea pig; settings: Cavia porcellus, in vitro
From the text: as §1

heart rate [4] = test: Cardiovascular effect (heart rate) measured simultaneously in the dog model; assay type: in vivo; settings: 0.125 and 0.5 mg./kg.
Procedure: as §2

EC50 (guinea pig trachea): 0.0055 ± 0.0008 µg/mL | EC50 (guinea pig right atria; force, read-out: EC50 increasing the force of guinea pig right atria): 0.16 ± 0.028 µg/mL | EC50 (guinea pig right atria; rate, read-out: EC50 increasing the rate of guinea pig right atria): 0.33 ± 0.1 µg/mL
SMILES: CC(C)(Cc1ccccc1)NCC(O)c1ccc(O)c(CC#N)c1.Cl (stereo not drawn) [2-Hydroxy-5-[1-hydroxy-2-[(1,1-dimethyl-2-phenylethyl)amino]ethyl]benzeneacetonitrile Hydrochloride]
antagonism of methacholine-induced bronchoconstriction ([1]; 0.5 mg./kg. of body weight): 33.5 ± 5.2% | antagonism of methacholine-induced bronchoconstriction ([1]; 2.0 mg./kg. of body weight): 72.3 ± 4.0% | effect on heart rate at bronchodilating doses (heart rate [2]): without appreciably affecting heart rate | reduction of serotonin-increase pulmonary airway resistance ([3]; 0.125 mg./kg. body weight): 49.7 ± 13.4% | reduction of serotonin-increase pulmonary airway resistance ([3]; 0.5 mg./kg. body weight): 96.7 ± 12.3% | effect on heart rate at bronchodilating doses (heart rate [4]): without appreciably affecting heart rate
